Tests used:
Experiment in all cases: KINOMEscan kinase binding assay
[1] = test system: ABL1(F3171)-phosphorylated; conditions: at 1 μM
Protocol: (§1) Kinase binding assays were performed at Eurofins/DiscoveRx using the general KINOMEscan Protocol (Fabian, M. A. et al., “A small molecule-kinase interaction map for clinical kinase inhibitors,” Nat. Biotechnol. 2005, 23(3):329-36). For most assays, kinase-tagged T7 phage strains were prepared in an E. coli host derived from the BL21 strain. E. coli were grown to log-phase and infected with T7 phage and incubated with shaking at 32° C. until lysis. The lysates were centrifuged and filtered to remove cell debris. The remaining kinases were produced in HEK-293 cells and subsequently tagged with DNA for qPCR detection. Streptavidin-coated magnetic beads were treated with biotinylated small molecule ligands for 30 minutes at room temperature to generate affinity resins for kinase assays. The liganded beads were blocked with excess biotin and washed with blocking buffer (SeaBlock (Pierce), 1% BSA, 0.05% Tween 20, 1 mM DTT) to remove unbound ligand and to reduce nonspecific binding. Binding reactions were assembled by combining kinases, liganded affinity beads, and test compounds in 1× binding buffer (20% SeaBlock, 0.17×PBS, 0.05% Tween 20, 6 mM DTT). All reactions were performed in polystyrene 96-well plates in a final volume of 0.135 mL. The assay plates were incubated at room temperature with shaking for 1 hour and the affinity beads were washed with wash buffer (1×PBS, 0.05% Tween 20). The beads were then re-suspended in elution buffer (1×PBS, 0.05% Tween 20, 0.5 μM non-biotinylated affinity ligand) and incubated at room temperature with shaking for 30 minutes. The kinase concentration in the eluates was measured by qPCR. Results for compounds tested in this assay at a given concentration are reported as “% Ctrl”, where lower numbers indicate stronger binding in the matrix. % Ctrl was calculated as (test compound signal-positive control signal)/(negative control signal-positive control signal)×100. Dissociation constants (Kds) for test compound-kinase interactions were calculated by measuring the amount of kinase captured on the solid support as a function of the test compound concentration.

[2] = test system: ABL1(F317L)-nonphosphorylated; conditions: at 1 μM
Protocol: as §1

[3] = test system: ABL1(H396P)-nonphosphorylated; conditions: at 1 μM
Protocol: as §1

[4] = test system: ABL1(T315I)-phosphorylated; conditions: at 1 μM
Protocol: as §1

ALK(C1156Y) = conditions: at 1 μM
Protocol: as §1

AXL = conditions: at 1 μM
Protocol: as §1

DDR1 = conditions: at 1 μM
Protocol: as §1

EGFR(G719C) = conditions: at 1 μM
Protocol: as §1

EGFR(G719S) = conditions: at 1 μM
Protocol: as §1

[5] = test system: EGFR(L747-E749del, A750P); conditions: at 1 μM
Protocol: as §1

[6] = test system: EGFR(L747-S752del, P753S); conditions: at 1 μM
Protocol: as §1

EGFR(L861Q) = conditions: at 1 μM
Protocol: as §1

EGFR(T790M) = conditions: at 1 μM
Protocol: as §1

EGFR = conditions: at 1 μM
Protocol: as §1

EPHA1 = conditions: at 1 μM
Protocol: as §1

EPHA4 = conditions: at 1 μM
Protocol: as §1

EPHA6 = conditions: at 1 μM
Protocol: as §1

EPHA7 = conditions: at 1 μM
Protocol: as §1

EPHB2 = conditions: at 1 μM
Protocol: as §1

EPHB6 = conditions: at 1 μM
Protocol: as §1

ERBB2 = conditions: at 1 μM
Protocol: as §1

ERBB4 = conditions: at 1 μM
Protocol: as §1

FER = conditions: at 1 μM
Protocol: as §1

FGFR1 = conditions: at 1 μM
Protocol: as §1

FGFR2 = conditions: at 1 μM
Protocol: as §1

FGFR3 = conditions: at 1 μM
Protocol: as §1

FGR = conditions: at 1 μM
Protocol: as §1

FLT3(D835Y) = conditions: at 1 μM
Protocol: as §1

FLT3(N841I) = conditions: at 1 μM
Protocol: as §1

FRK = conditions: at 1 μM
Protocol: as §1

IGF1R = conditions: at 1 μM
Protocol: as §1

[7] = test system: JAK1(JH2domain-pseudokinase)
Protocol: as §1

KIT(V559D, V654A) = conditions: at 1 μM
Protocol: as §1

MET(M1250T) = conditions: at 1 μM
Protocol: as §1

MET = conditions: at 1 μM
Protocol: as §1

MST1R = conditions: at 1 μM
Protocol: as §1

SRC = conditions: at 1 μM
Protocol: as §1

SRMS = conditions: at 1 μM
Protocol: as §1

TXK = conditions: at 1 μM
Protocol: as §1

[8] = test system: TYK2(JH1domain-catalytic)
Protocol: as §1

Cc1cc2c([nH]1)/C=C1\C(=O)Nc3c(Cl)cc(cc31)-c1cn(C)nc1COC[C@@H](C)N(C)C2=O [Cpd. 5, [3a(4)Z,10R]-20-chloro-6,9,10,15-tetramethyl-10,11,13,15-tetrahydro-2H-1,17-(ethanediylidene)pyrazolo[4,3-m]dipyrrolo[3,2-f:3′,4′-i][1,4]oxazacyclopentadecine-3,8(5H,9H)-dione]
% Ctrl [1]: 97%
% Ctrl [2]: 86%
% Ctrl [3]: 98%
% Ctrl [4]: 70%
% Ctrl (ALK(C1156Y)): 90%
% Ctrl (AXL): 86%
% Ctrl (DDR1): 93%
% Ctrl (EGFR(G719C)): 100%
% Ctrl (EGFR(G719S)): 98%
% Ctrl [5]: 74%
% Ctrl [6]: 86%
% Ctrl (EGFR(L861Q)): 94%
% Ctrl (EGFR(T790M)): 80%
% Ctrl (EGFR): 96%
% Ctrl (EPHA1): 82%
% Ctrl (EPHA4): 93%
% Ctrl (EPHA6): 91%
% Ctrl (EPHA7): 98%
% Ctrl (EPHB2): 90%
% Ctrl (EPHB6): 92%
% Ctrl (ERBB2): 100%
% Ctrl (ERBB4): 97%
% Ctrl (FER): 68%
% Ctrl (FGFR1): 84%
% Ctrl (FGFR2): 100%
% Ctrl (FGFR3): 90%
% Ctrl (FGR): 93%
% Ctrl (FLT3(D835Y)): 100%
% Ctrl (FLT3(N841I)): 86%
% Ctrl (FRK): 80%
% Ctrl (IGF1R): 98%
% Ctrl ([7]; JAK1(JH2domain-pseudokinase), at 1 μM): 0.85%
Kd ([7]; read-out: JAK1(JH2 domain-pseudokinase) Kd): 50 nM
% Ctrl (KIT(V559D, V654A)): 91%
% Ctrl (MET(M1250T)): 100%
% Ctrl (MET): 96%
% Ctrl (MST1R): 95%
% Ctrl (SRC): 100%
% Ctrl (SRMS): 61%
% Ctrl (TXK): 94%
% Ctrl ([8]; TYK2(JH1domain-catalytic), at 1 μM): 69%
Kd ([8]; read-out: TYK2(JH1 domain-catalytic) Kd): > 10 µM

Source: patent US20250074920A1, “MACROCYCLIC COMPOUNDS AND USE AS KINASE INHIBITORS” (BLOSSOMHILL THERAPEUTICS, INC., priority 2022, published 2025)
